Measured values from patent US7307145B2, “Sodium-independent transporter transporting small-sized neutral amino acid, gene thereof and method of analyzing transporter function by constructing fused proteins enabling the specification of the function” (Japan Science and Technology Agency, priority 2001, dated 2007).
Each block holds one molecule with its values, some of them ahead of it.

Tests used:
[1] = biological target: T1, Asc-2-rBAT (Mus musculus, UniProt Q8VIE6+Q91WV7); assay: Michaelis-Menten test of amino acid uptake by Xenopus oocytes injected with Asc-2-rBAT fusion protein cRNA; type: cell-based; conditions: Asc-2-rBAT expressed in oocyte; serine = 1.00; mean ± standard error, n=3
T1 construct: expressed in transfected cells; host or cells: oocyte injected with cRNA
T1 sequence (Q8VIE6+Q91WV7 with tags, fused parts or gaps): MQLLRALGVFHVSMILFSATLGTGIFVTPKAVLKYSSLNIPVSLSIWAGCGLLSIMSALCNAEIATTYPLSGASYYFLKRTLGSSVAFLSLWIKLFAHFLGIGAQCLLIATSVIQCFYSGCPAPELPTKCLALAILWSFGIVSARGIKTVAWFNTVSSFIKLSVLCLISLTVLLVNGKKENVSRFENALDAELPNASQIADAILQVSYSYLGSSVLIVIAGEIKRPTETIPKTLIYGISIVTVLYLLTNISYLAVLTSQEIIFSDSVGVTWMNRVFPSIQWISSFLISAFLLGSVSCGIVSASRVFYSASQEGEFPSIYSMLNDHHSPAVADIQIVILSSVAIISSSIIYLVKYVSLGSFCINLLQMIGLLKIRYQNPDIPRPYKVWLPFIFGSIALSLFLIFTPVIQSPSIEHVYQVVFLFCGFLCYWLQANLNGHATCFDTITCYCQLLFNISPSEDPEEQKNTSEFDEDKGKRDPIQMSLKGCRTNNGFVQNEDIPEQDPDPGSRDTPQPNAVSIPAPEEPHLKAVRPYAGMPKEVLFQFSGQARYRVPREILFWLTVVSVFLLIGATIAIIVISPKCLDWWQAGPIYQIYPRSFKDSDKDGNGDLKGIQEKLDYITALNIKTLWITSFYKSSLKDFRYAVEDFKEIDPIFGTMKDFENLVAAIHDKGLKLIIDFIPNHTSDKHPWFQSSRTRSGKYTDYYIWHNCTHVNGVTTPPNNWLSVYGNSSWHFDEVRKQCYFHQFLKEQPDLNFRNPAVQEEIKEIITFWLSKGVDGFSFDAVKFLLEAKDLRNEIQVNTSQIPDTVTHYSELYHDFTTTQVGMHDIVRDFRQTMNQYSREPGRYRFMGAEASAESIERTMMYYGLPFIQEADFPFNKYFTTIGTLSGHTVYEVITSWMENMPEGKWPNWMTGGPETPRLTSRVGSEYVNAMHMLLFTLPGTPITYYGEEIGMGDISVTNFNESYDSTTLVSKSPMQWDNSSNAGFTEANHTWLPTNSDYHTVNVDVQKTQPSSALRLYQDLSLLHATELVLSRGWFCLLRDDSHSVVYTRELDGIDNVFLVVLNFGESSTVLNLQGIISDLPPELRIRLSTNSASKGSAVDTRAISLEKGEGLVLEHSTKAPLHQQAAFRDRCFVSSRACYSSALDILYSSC
Method: (§1) A Michaelis-Menten pharmacodynamic test of a sodium-independent transporter Asc-2 transporting small-sized neutral amino acid was conducted. By investigating the change in the ratio of serine uptake by the difference in the substrate serine concentration, the Michaelis-Menten pharmacodynamic test of the Asc-2 was conducted.
(§2) The serine uptake test was conducted using the oocyte into which a cRNA of the gene of the fusion protein of the Asc-2 with the 4F2hc or the rBAT (Asc-2-4F2hc or Asc-2-rBAT) was injected in accordance with the method in Section (2) in Example 2 described above.
(§3) The Michaelis-Menten pharmacodynamic tests were conducted also for the amino acids, other than serine, which also serve as the substrates for the Asc-2, and the Km and Vmax values were calculated and are shown in the following Table 1.

[2] = biological target: T1, Asc-2-rBAT; assay: Inhibition test: 14C-serine uptake by oocytes expressing Asc-2-rBAT with added amino acids and analogues; type: cell-based; conditions: 14C-serine 5 μM; non-labeled compound 500 μM; Na+-free uptake solution
Method: In a serine uptake test in an oocyte into which a cRNA of the gene of the fusion protein of the Asc-2 with the rBAT (Asc-2-rBAT) was injected, the effect of amino acids and their analogues on the system was investigated.
The serine uptake test was conducted using the oocyte into which a cRNA of the gene of the fusion protein of the Asc-2 with the rBAT (Asc-2-rBAT) was injected in accordance with the method in Section (2) in Example 2 described above. Nevertheless, the test was conducted using as a sodium-free uptake solution (Na^+-free uptake solution), and the ^14C-serine (5 μM) uptake was measured in the presence or absence of various compounds (non-labeled) at 500 μM.

[3] = biological target: T1, Asc-2-rBAT; assay: Uptake test of radiolabeled amino acids and analogues as substrates by oocytes expressing Asc-2-rBAT; type: cell-based; conditions: Asc-2-rBAT oocyte; 14C compound as substrate
Method: Using various amino acids and their analogues as substrates, the uptake by an oocyte into which a cRNA of the gene of the fusion protein of the Asc-2 with the rBAT (Asc-2-rBAT) had been injected was investigated.
The uptake test of various amino acids and their analogues was conducted using the oocyte into which a cRNA of the gene of the fusion protein of the Asc-2 with the rBAT (Asc-2-rBAT) had been injected in accordance with the method in Section (2) in Example 2 described above. Nevertheless, the test was conducted using as a substrate various compounds which were radiolabeled instead of ^14C-serine.

[4] = tested on: Asc-2 fusion protein with the 4F2hc or rBAT; assay: Transport of amino acids by Asc-2 expressed on the cell membrane as fusion protein with 4F2hc or rBAT (summary statement); type: cell-based, mouse; conditions: Asc-2 fused with 4F2hc or rBAT
Source text: In addition, L-methionine, L-leucine, L-isoleucine, L-valine, L-phenylalanine, L-tyrosine, L-histidine, D-serine and D-alanine are also transported at a low affinity.

[5] = tested on: T2, N[C@@H](CO)C(=O)O; assay: Michaelis-Menten test of serine uptake by Xenopus oocytes injected with Asc-2-4F2hc fusion protein cRNA; type: cell-based, mouse; conditions: other: Asc-2-4F2hc expressed in oocyte
T2 construct: expressed in transfected cells; host or cells: oocyte injected with cRNA
Method: as §1, §2

[6] = substrate: C[C@@H](O)[C@H](N)C(=O)O; assay: cells, lysate or membranes; conditions: other: Asc-2-rBAT expressed in oocyte; mean ± standard error, n=3
[7] = substrate: C[C@H](N)C(=O)O; assay: cells, lysate or membranes; conditions: other: Asc-2-rBAT expressed in oocyte; mean ± standard error, n=3
[8] = substrate: NCC(=O)O; assay: cells, lysate or membranes; conditions: other: Asc-2-rBAT expressed in oocyte; mean ± standard error, n=3
[9] = substrate: CC(C)C[C@H](N)C(=O)O; assay: Michaelis-Menten test of amino acid uptake by Xenopus oocytes injected with Asc-2-rBAT fusion protein cRNA; type: cell-based, mouse; conditions: other: Asc-2-rBAT expressed in oocyte; mean ± standard error, n=3
Method: as §1, §2, §3

[10] = substrate: CC(C)[C@H](N)C(=O)O; assay: as above; type: cell-based, mouse; conditions: other: Asc-2-rBAT expressed in oocyte; mean ± standard error, n=3
Method: as §1, §2, §3

[11] = substrate: N[C@@H](CO)C(=O)O; assay: as above; type: cell-based, mouse; conditions: other: Asc-2-rBAT expressed in oocyte; mean ± standard error, n=3
Method: as §1, §2, §3

[12] = substrate: N[C@@H](CS)C(=O)O; assay: as above; type: cell-based, mouse; conditions: other: Asc-2-rBAT expressed in oocyte; mean ± standard error, n=3
Method: as §1, §2, §3

- Vmax (ratio to the Vmax of serine) [1]: 1.18 ± 0.05
- Effect on Asc-2-rBAT-mediated 14C-serine uptake (cis-inhibition) [2]: inhibited potently
- Uptake of radiolabeled compound into the oocyte [3]: substantial uptake
Molecule: NCC(=O)O [Glycine]
- Affinity of transport by Asc-2 fusion protein [4]: high affinity

- Effect on Asc-2-rBAT-mediated 14C-serine uptake (cis-inhibition) [2]: no effect
Molecule: α-aminoisometylic acid

- Vmax (ratio to the Vmax of serine) [1]: 0.83 ± 0.08
- Effect on Asc-2-rBAT-mediated 14C-serine uptake (cis-inhibition) [2]: inhibited potently
- Uptake of radiolabeled compound into the oocyte [3]: substantial uptake
Molecule: C[C@H](N)C(=O)O [L-Alanine]
- Affinity of transport by Asc-2 fusion protein [4]: high affinity

Molecule: CC[C@H](C)[C@H](N)C(=O)O [L-isoleucine]
- Affinity of transport by Asc-2 fusion protein [4]: low affinity

- Vmax (ratio to the Vmax of serine) [1]: 0.79 ± 0.22
Molecule: CC(C)[C@H](N)C(=O)O [L-Valine]
- Affinity of transport by Asc-2 fusion protein [4]: low affinity

Molecule: N[C@@H](Cc1ccccc1)C(=O)O [L-phenylalanine]
- Affinity of transport by Asc-2 fusion protein [4]: low affinity

Molecule: N[C@@H](Cc1c[nH]cn1)C(=O)O [L-histidine]
- Affinity of transport by Asc-2 fusion protein [4]: low affinity

- Vmax (ratio to the Vmax of serine) [1]: 0.53 ± 0.06
- Effect on Asc-2-rBAT-mediated 14C-serine uptake (cis-inhibition) [2]: inhibited potently
- Uptake of radiolabeled compound into the oocyte [3]: substantial uptake
Molecule: C[C@@H](O)[C@H](N)C(=O)O [L-Threonine]
- Affinity of transport by Asc-2 fusion protein [4]: high affinity

- Vmax (ratio to the Vmax of serine) [1]: (1.00)
- Effect on Asc-2-rBAT-mediated 14C-serine uptake (cis-inhibition) [2]: inhibited potently
- Uptake of radiolabeled compound into the oocyte [3]: substantial uptake
Molecule: N[C@@H](CO)C(=O)O [L-Serine]
- Affinity of transport by Asc-2 fusion protein [4]: high affinity

Molecule: CSCC[C@H](N)C(=O)O [L-methionine]
- Affinity of transport by Asc-2 fusion protein [4]: low affinity

- Vmax (ratio to the Vmax of serine) [1]: 1.17 ± 0.11
Molecule: CC(C)C[C@H](N)C(=O)O [L-Leucine]
- Affinity of transport by Asc-2 fusion protein [4]: low affinity

Molecule: Asc-2-4F2hc (Mus musculus)
- Km [5]: 2.10 µM

- Vmax (ratio to the Vmax of serine) [1]: 0.19 ± 0.03
- Effect on Asc-2-rBAT-mediated 14C-serine uptake (cis-inhibition) [2]: inhibited potently
Molecule: N[C@@H](CS)C(=O)O [L-Cysteine]
- Affinity of transport by Asc-2 fusion protein [4]: high affinity

- Effect on Asc-2-rBAT-mediated 14C-serine uptake (cis-inhibition) [2]: no effect
Molecule: NCCCC(=O)O [γ-aminoisoyric acid]

Molecule: N[C@H](CO)C(=O)O [D-serine]
- Affinity of transport by Asc-2 fusion protein [4]: low affinity

- Effect on Asc-2-rBAT-mediated 14C-serine uptake (cis-inhibition) [2]: no effect
Molecule: NC1(C(=O)O)CC2CCC1C2 (centres unmarked) [BCH, 2-amino-2-norbornane-carboxylic acid]

Molecule: C[C@@H](N)C(=O)O [D-alanine]
- Affinity of transport by Asc-2 fusion protein [4]: low affinity

Molecule: N[C@@H](Cc1ccc(O)cc1)C(=O)O [L-tyrosine]
- Affinity of transport by Asc-2 fusion protein [4]: low affinity

B1: Asc-2-rBAT (Mus musculus) (protein)
chain: T1 sequence (Q8VIE6+Q91WV7 with tags, fused parts or gaps)
notes: expressed in transfected cells; host or cells: oocyte injected with cRNA
- Km [6]: 2.72 ± 0.44 µM
- Km [7]: 2.35 ± 0.30 µM
- Km [8]: 2.15 ± 0.35 µM
- Km [9]: 39.6 ± 4.3 µM
- Km [10]: 34.8 ± 10.6 µM
- Km [11]: 2.88 ± 0.37 µM
- Km [12]: 3.13 ± 0.57 µM
